# According to paper PMC5288202, “Simultaneous inhibition of Vps34 kinase would enhance PI3Kδ inhibitor cytotoxicity in the B-cell malignancies” (Oncotarget, 2016):
# How the values were obtained:
# PI3Kγ = molecular target: T1, PI3Kγ (Mus musculus, UniProt Q9JHG7); test: PI3K isoforms cellular selectivity assay (AKT phosphorylation, RAW264.7, C5a); assay type: cell-based; conditions: RAW264.7 cells, C5a stimulation
# T1 construct: endogenous in cells; host or cells: RAW264.7 (ATCC)
# Method: Cells were lysed and AKT phosphorylation was determined by Western Blotting. Intensity of the bands was determined using ImageJ 1.42q (NIH, USA) and normalized to total AKT (loading control).
# [1] = test system: LAMP1 localization in HeLa cells; test: Immunofluorescence of LAMP1 localization; assay type: cell-based
# Method: HeLa cells were treated with different concentrations of inhibitors for 16 hours. For all immunofluorescence experiments, cells were fixed in -20 °C methanol for 5 minutes or 3.7% (v/v) formaldehyde in phosphate-buffered saline (PBS) for 20 minutes. For LC3B staining, cells were fixed in -20 °C methanol. For EEA1 and LAMP1 staining, cells were fixed in PBS+ formaldehyde. Cells were then permeabilized with TBSTx (0.1% Triton X-100), blocked in AbDil (TBSTx + 2% BSA + 0.1% NaN3), and probed with primary and secondary antibodies diluted in AbDil. Cells were rinsed thoroughly with TBSTx and mounted by anti-fade prolong Gold with DAPI. Images were taken using a Leica DMI4000B fluorescent microscope. All experiments were repeated at least three times). […] Cells were lysed in lysis buffer. P62, LC3B, and GAPDH antibodies were used for immunoblotting.
# VPS34 = molecular target: T2, VPS34 (Homo sapiens, UniProt Q8NEB9); test: Kinase kinetic assay with varied ATP; assay type: biochemical; conditions: varied ATP concentrations
# T2 construct: purchased Invitrogen
# T2 sequence (Q8NEB9 whole entry): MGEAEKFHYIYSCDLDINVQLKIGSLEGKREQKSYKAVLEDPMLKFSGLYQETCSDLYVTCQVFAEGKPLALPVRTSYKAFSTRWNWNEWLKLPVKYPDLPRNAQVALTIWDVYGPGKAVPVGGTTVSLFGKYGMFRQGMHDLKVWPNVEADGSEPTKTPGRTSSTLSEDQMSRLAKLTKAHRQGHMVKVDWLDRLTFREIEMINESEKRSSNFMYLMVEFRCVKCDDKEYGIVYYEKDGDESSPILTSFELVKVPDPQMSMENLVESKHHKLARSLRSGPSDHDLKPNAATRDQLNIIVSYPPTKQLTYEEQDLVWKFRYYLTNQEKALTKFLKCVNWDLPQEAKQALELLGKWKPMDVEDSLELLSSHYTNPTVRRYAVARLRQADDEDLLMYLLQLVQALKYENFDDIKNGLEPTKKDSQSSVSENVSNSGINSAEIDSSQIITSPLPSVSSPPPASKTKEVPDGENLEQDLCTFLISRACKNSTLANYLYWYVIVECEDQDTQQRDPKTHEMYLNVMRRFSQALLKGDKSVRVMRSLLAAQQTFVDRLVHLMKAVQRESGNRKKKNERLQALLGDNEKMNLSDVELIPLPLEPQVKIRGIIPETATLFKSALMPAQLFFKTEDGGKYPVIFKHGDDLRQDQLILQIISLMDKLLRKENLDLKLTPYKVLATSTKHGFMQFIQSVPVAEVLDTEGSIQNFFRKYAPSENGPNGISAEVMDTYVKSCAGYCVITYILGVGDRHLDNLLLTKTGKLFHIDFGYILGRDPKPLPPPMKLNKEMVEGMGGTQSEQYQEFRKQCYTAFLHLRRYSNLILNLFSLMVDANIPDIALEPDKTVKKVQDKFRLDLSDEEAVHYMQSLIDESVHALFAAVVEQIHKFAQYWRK
# Method: (§1) Kinetic analyses of PI3Kδ and Vps34 were performed using a luminometric kinase assay varying the concentration of ATP using the ADP-Glo reagents (Promega). […] After 60 min incubation at RT, varied concentrations of ATP and 0.1 mM substrate (PIP2:PS for PI3Kδ, PI:PS for Vps34) were added and incubated for 60 min at 37° C. The overall rate of reaction was determined as the slope of the decreasing phase of the reaction. Each data point was collected in duplicate and kinetic parameters were obtained using Prism 5.0 (GraphPad Software, San Diego, CA).
# CMK = test: Anti-proliferative effect; assay type: cell-based; conditions: Homo sapiens, read-out: GI50 CMK
# Hs 505T = test: Anti-proliferative effect; assay type: cell-based; conditions: Homo sapiens, read-out: GI50 Hs 505T
# OCI-AML-2 = test: Colony formation (colonogenic assay); assay type: cell-based; conditions: Homo sapiens, OCI-AML2
# [2] = test system: FLT3-ITD positive primary AML cells; test: Growth of AML primagraft cells ex vivo; assay type: cell-based; conditions: 72 hours
# Method: Mononuclear cells were isolated from AML patients. Mononuclear cells were isolated by density gradient centrifugation through Ficoll-Plaque Plus (Amersham Pharmacia Biotech AB, Uppsala, Sweden) at 2000 rpm for 30 minutes, followed by two washes in 1X PBS. Freeze-thawed cells were then cultured in liquid culture (DMEM, supplemented with 20% FBS). All blood and bone marrow samples from AML patients were obtained through written consent under approval of the Dana Farber Cancer Institute Institutional Review Board. The ethics committees approved the consent procedure.
# [3] = test system: MV4-11 cell-inoculated xenograft; test: MV4-11 xenograft tumor model; assay type: in vivo
# Excerpt: Six week old female nu/nu mice were purchased from the Shanghai Experimental Center, Chinese Science Academy (Shanghai). All animals were maintained in a specific pathogen-free facility and used according to the animal care regulations of Hefei Institutes of Physical Science Chinese Academy of Sciences, and all efforts were made to minimize animal suffering. To obtain an […] in the mice, cells were harvested during exponential growth. 7 million MV4-11 cells in PBS were suspended in a 1:1 mixture with Matrigel (BD Biosciences) and injected into the subcutaneous space on the right flank of nu/nu mice. Daily intraperitoneal injection was initiated when MV4-11 tumors had reached a size of 200 to 400 mm^3. Animals were then randomized into treatment groups of 5 mice each for efficacy studies. […] Body weight and tumor growth were measured daily after PI3KD/V-IN-01 treatment. Tumor volumes were calculated as follows: tumor volume (mm^3)=[(W^2× L)/2] in which width (W) is defined as the smaller of the two measurements and length(L) is defined as the larger of the two measurements.
# TUNEL staining was performed using the POD in Situ Cell Death Detection kit (Roche, USA). Sections were deparaffinized in xylene, rehydrated in decreasing concentrations of ethanol, then treated by nuclease free Proteinase K for 15 min at room temperature before endogenous peroxidase was blocked in 3% H2O2 in methanol. Terminal deoxynucleotidyl transferase (TdT) in reaction buffer was applied to sections for 1h at 37°C. Following washes, the slides were covered by converter-POD solution for 30 min at 37°C. Apoptotic cells were detected after incubation in the 3, 3′-diaminobenzidine (DAB) chromogen (Beyotime Biotechnology) for approximately 8 min and slides were counterstained with hematoxylin.
# Incubations with primary antibodies lasted overnight at 4°C. The secondary detection system was used to visualize antibody binding. Staining was developed with DAB; slides were counterstained with hematoxylin, dehydrated and mounted.
# OCI-AML-3 = test: Autophagy markers LC3BII and p62 (immunoblotting); assay type: cell-based
# PI3Kδ = PI3Kδ (Homo sapiens, UniProt O00329); test: Kinase kinetic assay with varied ATP; assay type: biochemical; design: purchased Invitrogen; conditions: varied ATP concentrations
# Chain of PI3Kδ (O00329 whole entry): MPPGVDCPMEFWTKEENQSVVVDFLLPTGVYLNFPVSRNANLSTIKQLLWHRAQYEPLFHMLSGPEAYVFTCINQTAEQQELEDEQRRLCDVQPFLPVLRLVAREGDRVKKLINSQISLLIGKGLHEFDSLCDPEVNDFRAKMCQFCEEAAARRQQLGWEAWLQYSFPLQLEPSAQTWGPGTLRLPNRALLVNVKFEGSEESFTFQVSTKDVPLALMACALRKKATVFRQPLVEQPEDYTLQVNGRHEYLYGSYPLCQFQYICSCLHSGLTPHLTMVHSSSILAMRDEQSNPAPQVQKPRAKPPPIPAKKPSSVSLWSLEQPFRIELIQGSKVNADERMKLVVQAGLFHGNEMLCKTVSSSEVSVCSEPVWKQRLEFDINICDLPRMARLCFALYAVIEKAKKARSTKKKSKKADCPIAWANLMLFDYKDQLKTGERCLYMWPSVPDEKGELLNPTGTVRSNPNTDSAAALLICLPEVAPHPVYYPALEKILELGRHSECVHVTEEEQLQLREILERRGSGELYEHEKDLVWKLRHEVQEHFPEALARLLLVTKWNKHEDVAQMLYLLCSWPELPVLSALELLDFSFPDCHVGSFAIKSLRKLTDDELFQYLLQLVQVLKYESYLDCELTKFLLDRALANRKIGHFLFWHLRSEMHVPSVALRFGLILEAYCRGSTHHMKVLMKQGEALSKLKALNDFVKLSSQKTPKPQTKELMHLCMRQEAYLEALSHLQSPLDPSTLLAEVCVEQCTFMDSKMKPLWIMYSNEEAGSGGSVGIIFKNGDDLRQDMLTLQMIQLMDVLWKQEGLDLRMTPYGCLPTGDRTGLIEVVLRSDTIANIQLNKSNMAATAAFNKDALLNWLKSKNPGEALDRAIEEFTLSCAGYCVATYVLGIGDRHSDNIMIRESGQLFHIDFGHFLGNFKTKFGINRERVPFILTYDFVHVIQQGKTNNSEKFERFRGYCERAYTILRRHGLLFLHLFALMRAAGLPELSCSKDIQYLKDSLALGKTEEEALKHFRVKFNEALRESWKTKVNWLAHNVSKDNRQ
# Chain of PI3Kδ (P27986 whole entry partner): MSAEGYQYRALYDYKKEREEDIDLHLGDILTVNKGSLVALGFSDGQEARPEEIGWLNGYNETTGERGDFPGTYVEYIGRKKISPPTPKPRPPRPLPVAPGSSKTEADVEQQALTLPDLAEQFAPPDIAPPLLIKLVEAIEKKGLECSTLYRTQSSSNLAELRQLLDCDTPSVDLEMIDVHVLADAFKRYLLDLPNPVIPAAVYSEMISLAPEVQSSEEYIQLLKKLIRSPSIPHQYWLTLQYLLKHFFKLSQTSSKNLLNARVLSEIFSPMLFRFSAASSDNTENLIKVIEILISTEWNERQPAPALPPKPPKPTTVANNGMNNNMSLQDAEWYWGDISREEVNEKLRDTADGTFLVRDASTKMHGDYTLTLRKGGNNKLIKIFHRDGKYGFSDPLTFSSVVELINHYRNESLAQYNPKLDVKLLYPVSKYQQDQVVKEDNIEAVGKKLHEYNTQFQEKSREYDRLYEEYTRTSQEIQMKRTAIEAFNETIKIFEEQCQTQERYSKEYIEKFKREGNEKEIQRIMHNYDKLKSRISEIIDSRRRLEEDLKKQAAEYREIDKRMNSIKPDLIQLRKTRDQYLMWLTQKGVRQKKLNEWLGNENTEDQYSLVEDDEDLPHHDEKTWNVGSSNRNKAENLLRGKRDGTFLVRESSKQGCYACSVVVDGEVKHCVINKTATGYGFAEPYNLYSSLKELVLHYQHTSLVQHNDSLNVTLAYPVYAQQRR
# Method: as §1
# [4] = immunohistochemistry, MV4-11 xenograft
# T1 sequence (Q9JHG7 whole entry, canonical isoform): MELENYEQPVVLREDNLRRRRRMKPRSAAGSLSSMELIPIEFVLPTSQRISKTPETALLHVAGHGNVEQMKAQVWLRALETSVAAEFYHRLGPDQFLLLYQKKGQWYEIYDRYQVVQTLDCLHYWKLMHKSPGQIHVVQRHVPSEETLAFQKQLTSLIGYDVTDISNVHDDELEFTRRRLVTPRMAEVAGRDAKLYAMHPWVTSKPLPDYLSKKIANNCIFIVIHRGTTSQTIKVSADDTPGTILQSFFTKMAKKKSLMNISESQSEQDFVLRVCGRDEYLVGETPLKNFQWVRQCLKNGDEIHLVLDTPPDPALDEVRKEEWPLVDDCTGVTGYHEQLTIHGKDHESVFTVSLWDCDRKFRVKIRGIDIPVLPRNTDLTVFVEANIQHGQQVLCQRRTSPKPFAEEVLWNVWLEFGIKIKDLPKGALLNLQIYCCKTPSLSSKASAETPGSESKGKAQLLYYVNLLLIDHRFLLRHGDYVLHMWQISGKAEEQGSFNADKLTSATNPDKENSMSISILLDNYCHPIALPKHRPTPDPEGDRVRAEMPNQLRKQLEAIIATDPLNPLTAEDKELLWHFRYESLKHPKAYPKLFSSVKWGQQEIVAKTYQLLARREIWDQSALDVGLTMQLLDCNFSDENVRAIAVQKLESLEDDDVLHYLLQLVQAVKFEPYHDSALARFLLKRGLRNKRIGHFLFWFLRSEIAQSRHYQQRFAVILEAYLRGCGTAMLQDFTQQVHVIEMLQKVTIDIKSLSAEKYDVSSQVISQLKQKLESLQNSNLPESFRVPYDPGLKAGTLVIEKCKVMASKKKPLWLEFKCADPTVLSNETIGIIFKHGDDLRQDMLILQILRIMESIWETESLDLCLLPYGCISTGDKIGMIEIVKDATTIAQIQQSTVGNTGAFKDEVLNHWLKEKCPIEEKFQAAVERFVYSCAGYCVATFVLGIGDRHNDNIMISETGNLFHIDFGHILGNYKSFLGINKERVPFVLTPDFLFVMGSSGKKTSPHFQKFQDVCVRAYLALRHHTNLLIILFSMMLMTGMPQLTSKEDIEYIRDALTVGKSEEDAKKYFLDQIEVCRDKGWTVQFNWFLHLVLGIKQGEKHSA
structure (smiles),measurement,setting,value
"Cc1nc(NC(=O)CN)sc1-c1cnc(Cl)c(NS(=O)(=O)c2ccc(C(C)(C)C)cc2)c1 [PI3KD/V-IN-01, 2-amino-N-(5-(5-(4-tert-butylphenylsulfonamido)-6-chloropyridin-3-yl)-4-methylthiazol-2-yl)acetamide]",EC50,PI3Kγ,186 nM
same,Effect on lysosome marker LAMP1 localization,[1],affected
same,Mode of inhibition against Vps34,VPS34,ATP competitive inhibitor
same,GI50,CMK,2000 nM
same,GI50,Hs 505T,> 10000 nM
same,EC50,OCI-AML-2,145 nM
same,inhibition at 1 µM,[2],> 85%
same,TGI (Tumor growth inhibition),"[3]; 50 mg/kg/day administered intraperitoneal, MV4-11 xenograft mice",86.8%
same,effect on body weight,"[3]; 50 mg/kg/day, MV4-11 xenograft mice",no apparent effects on body weight
same,apoptosis in tumor tissue (TUNEL stain),[3]; [4],dose-dependently increased
same,cell proliferation in tumor tissue (Ki67 stain),[3]; [4],dose-dependently inhibited
same,"levels of the autophagy markers, LC3BII and p62",OCI-AML-3,concentration-dependent increase
same,Mode of inhibition against PI3Kδ,PI3Kδ,ATP competitive inhibitor
